Experimental data taken from patent publication US10301304B2, “Selective inhibitor of phosphatidylinositol 3-kinase-gamma” (VERTEX PHARMACEUTICALS INCORPORATED, priority 2013, dated 2019).
Read-outs that look alike come from different tables or passages of the source.

How the values were obtained:
[1] = Permeability in Caco-2 cell line; assay type: in vitro ADME; details: human
Procedure: (§1) The permeability of Compound 1 was evaluated using both Caco-2 and MadinDarby canine kidney (MDCK) wild-type cell lines. Cells were exposed to drug in buffer on the apical side (measuring permeability in the A-to-B direction) or basolateral side (measuring permeability in the B-to-A direction) and incubated at 37° C. for one hour. Permeability was high in the A-to-B direction in both the MDCK and Caco-2 cell lines (33 and 18×10^−6 cm/sec, respectively).

[2] = system: Caco-2; assay: Permeability in Caco-2 cell line; assay type: in vitro ADME; details: Caco-2, 5 μM, A > B
Procedure: as §1

[3] = Tissue drug concentrations in CD40-induced IBD model; assay type: in vivo, mouse; details: 7 days, 2 h after last dose; for Kp at 2 h / concentration at 2 h: Rag1 knock-out (Rag 1−/−), mouse, intraperitoneal; for Kp at 2 h: colon (relative to plasma); for concentration at 2 h: plasma
Procedure: The PI3Kγ inhibitor, Compound 1, was tested in a CD40 induced colitis model to determine its effect on disease course. The CD40 model of IBD is induced by injecting an anti-CD40 monoclonal antibody (agonist, i.e., activating antibody versus neutralizing antibody) into T and B cell deficient mice (Rag 1−/− mice) to induce both systemic and intestinal inflammation that leads to colitis and wasting disease via the innate immune pathway. (See, e.g., Immunity 25, 309-318, August 2006). Briefly, Rag1 knock-out mice were injected IP with the anti-CD40 monoclonal antibody FGK45. Starting on Day 0, mice were treated with PBS, vehicle or Compound 1 at 5 mg/kg b.i.d. or 10 mg/kg b.i.d. Compound 1 was administered IP for 7 days on a 10/14-hour b.i.d. dosing regimen. Compound 1 was formulated in 5% NMP/15% PEG-400/80% in a 0.5% HPMC-E50 solution in water. At study termination, serum and colon samples were collected at 2 hours following the last dose for drug concentration analysis. Body weights were measured daily during the study. Compound 1 concentrations were analyzed in the plasma samples collected 2 hours following the final dose at study termination. Concentrations were determined using a high performance liquid chromatography/tandem mass spectrometry (HPLC/MS/MS) method.

[4] = Tissue Distribution in Rats; assay type: in vivo, rat; details: 5 mg/kg oral; for Kp at 0.5 h / Kp at 2 h / Kp at 7 h / Kp at 24 h / Kp at 48 h / Kp at 0.5 hr / Kp at 2 hr / Kp at 7 hr / Kp at 24 hr / Kp at 48 hr: male
Procedure: Compound 1 distributed well into most tissues after an oral dose of 5 mg/kg administered to male rats. […] The tissue to plasma ratio followed the trend of liver>kidney>heart>lung>spleen>brain>CSF. The elimination kinetics of Compound 1 in each examined organ followed plasma kinetics. There was no evidence for tissue accumulation of Compound 1 after a single dose administration.

Compound: Cc1cc(-c2cncc([C@@H](O)C(F)(F)F)c2)nc2c1C(=O)N(c1cnn(CC(F)F)c1)C2(C)C [Compound 1, (R)-6-(1-(2,2-difluoroethyl)-1H-pyrazol-4-yl)-4,7,7-trimethyl-2-(5-(2,2,2-trifluoro-1-hydroxyethyl)pyridin-3-yl)-6,7-dihydro-5H-pyrrolo[3,4-b]pyridin-5-one]
- Papp A→B at 1 h, 5 μM ([1]; Caco-2, Caco-2, 5 μM, A > B): 18 ×10⁻⁶ cm/s
- recovery at 1 h, 5 μM ([1]; Caco-2, Caco-2, 5 μM, A > B): 87%
- recovery at 1 h, 5 μM ([1]; Caco-2, Caco-2, 5 μM, B > A): 96%
- efflux ratio at 1 h, 5 μM ([1]; Caco-2, 5 μM): 1.9
- Papp B→A at 1 h, 5 μM ([1]; Caco-2, 5 μM, B > A): 60.7 ×10⁻⁶ cm/s
- Avg. Papp [2]: 32.6 ×10⁻⁶ cm/s
- 2 h Tissue Drug Concentration, Colon ([3]; 5 mg/kg b.i.d. IP): 6110 ± 6350 ng/g
- 2 h Tissue Drug Concentration, Colon ([3]; 10 mg/kg b.i.d. IP): 7480 ± 9700 ng/g
- Kp at 2 h ([3]; 5 mg/kg b.i.d. IP): 1.5
- Kp at 2 h ([3]; 10 mg/kg b.i.d. IP): 1.2
- concentration at 2 h ([3]; 5 mg/kg b.i.d. IP): 4020 ± 4520 ng/mL
- concentration at 2 h ([3]; 10 mg/kg b.i.d. IP): 6220 ± 6190 ng/mL
- Cmax, brain ([4]; male rats): 111 ng/g
- Cmax, kidney ([4]; male rats): 4770 ng/g
- Cmax, liver ([4]; male rats): 11400 ng/g
- tissue to plasma ratio trend ([4]; male rats, in words): liver>kidney>heart>lung>spleen>brain>CSF
- Kp at 0.5 h ([4]; CSF (relative to plasma), rat, 0.5 hr post dose, read-out: Tissue to Plasma Ratio, CSF): 0.01
- Kp at 2 h ([4]; CSF (relative to plasma), rat, 2 hr post dose, read-out: Tissue to Plasma Ratio, CSF): 0.01
- Kp at 7 h ([4]; CSF (relative to plasma), rat, 7 hr post dose, read-out: Tissue to Plasma Ratio, CSF): 0.01
- Kp at 24 h ([4]; CSF (relative to plasma), rat, 24 hr post dose, read-out: Tissue to Plasma Ratio, CSF): 0.01
- Kp at 7 h ([4]; brain (relative to plasma), rat, 7 hr post dose, read-out: Tissue to Plasma Ratio, Brain): 0.05
- Kp at 24 h ([4]; brain (relative to plasma), rat, 24 hr post dose, read-out: Tissue to Plasma Ratio, Brain): 0.06
- Kp at 0.5 h ([4]; brain, rat, 0.5 hr post dose, read-out: Tissue to Plasma Ratio, Brain): 0.04
- Kp at 2 h ([4]; brain, rat, 2 hr post dose, read-out: Tissue to Plasma Ratio, Brain): 0.07
- Kp at 48 h ([4]; brain, rat, 48 hr post dose, read-out: Tissue to Plasma Ratio, Brain): 0.07
- Kp at 0.5 hr ([4]; heart, rat, 0.5 hr post dose, read-out: Tissue to Plasma Ratio, Heart): 0.98
- Kp at 2 hr ([4]; heart, rat, 2 hr post dose, read-out: Tissue to Plasma Ratio, Heart): 1.67
- Kp at 7 hr ([4]; heart, rat, 7 hr post dose, read-out: Tissue to Plasma Ratio, Heart): 1.4
- Kp at 24 hr ([4]; heart, rat, 24 hr post dose, read-out: Tissue to Plasma Ratio, Heart): 1.46
- Kp at 48 hr ([4]; heart, rat, 48 hr post dose, read-out: Tissue to Plasma Ratio, Heart): 1.39
- Kp at 0.5 hr ([4]; kidney, rat, 0.5 hr post dose, read-out: Tissue to Plasma Ratio, Kidney): 1.75
- Kp at 2 hr ([4]; kidney, rat, 2 hr post dose, read-out: Tissue to Plasma Ratio, Kidney): 2.54
- Kp at 7 hr ([4]; kidney, rat, 7 hr post dose, read-out: Tissue to Plasma Ratio, Kidney): 2.16
- Kp at 24 hr ([4]; kidney, rat, 24 hr post dose, read-out: Tissue to Plasma Ratio, Kidney): 3.03
- Kp at 48 hr ([4]; kidney, rat, 48 hr post dose, read-out: Tissue to Plasma Ratio, Kidney): 4.76
- Kp at 0.5 h ([4]; liver, rat, 0.5 hr post dose, read-out: Tissue to Plasma Ratio, Liver): 4.96
- Kp at 2 h ([4]; liver, rat, 2 hr post dose, read-out: Tissue to Plasma Ratio, Liver): 6.99
- Kp at 7 h ([4]; liver, rat, 7 hr post dose, read-out: Tissue to Plasma Ratio, Liver): 5.13
- Kp at 24 h ([4]; liver, rat, 24 hr post dose, read-out: Tissue to Plasma Ratio, Liver): 5.69
- Kp at 48 hr ([4]; liver, rat, 48 hr post dose, read-out: Tissue to Plasma Ratio, Liver): 5.32
- Kp at 0.5 h ([4]; lung, rat, 0.5 hr post dose, read-out: Tissue to Plasma Ratio, Lung): 1.24
- Kp at 2 h ([4]; lung, rat, 2 hr post dose, read-out: Tissue to Plasma Ratio, Lung): 1.38
- Kp at 7 h ([4]; lung, rat, 7 hr post dose, read-out: Tissue to Plasma Ratio, Lung): 1.22
- Kp at 24 h ([4]; lung, rat, 24 hr post dose, read-out: Tissue to Plasma Ratio, Lung): 1.17
- Kp at 48 h ([4]; lung, rat, 48 hr post dose, read-out: Tissue to Plasma Ratio, Lung): 1.31
- Kp at 0.5 h ([4]; spleen, rat, 0.5 hr post dose, read-out: Tissue to Plasma Ratio, Spleen): 0.74
- Kp at 2 h ([4]; spleen, rat, 2 hr post dose, read-out: Tissue to Plasma Ratio, Spleen): 1.15
- Kp at 7 h ([4]; spleen, rat, 7 hr post dose, read-out: Tissue to Plasma Ratio, Spleen): 0.81
- Kp at 24 h ([4]; spleen, rat, 24 hr post dose, read-out: Tissue to Plasma Ratio, Spleen): 0.93
- Kp at 48 h ([4]; spleen, rat, 48 hr post dose, read-out: Tissue to Plasma Ratio, Spleen): 0.88
- Compound 1 Concentration, Brain ([4]; rat, 0.5 hr post dose): 74 ng/ml or ng/g
- Compound 1 Concentration, CSF ([4]; rat, 0.5 hr post dose): 20 ng/ml or ng/g
- Compound 1 Concentration, Heart ([4]; rat, 0.5 hr post dose): 1730 ng/ml or ng/g
- Compound 1 Concentration, Kidney ([4]; rat, 0.5 hr post dose): 3070 ng/ml or ng/g
- Compound 1 Concentration, Liver ([4]; rat, 0.5 hr post dose): 8710 ng/ml or ng/g
- Compound 1 Concentration, Lung ([4]; rat, 0.5 hr post dose): 2180 ng/ml or ng/g
- Compound 1 Concentration, Plasma ([4]; rat, 0.5 hr post dose): 1760 ng/ml or ng/g
- Compound 1 Concentration, Spleen ([4]; rat, 0.5 hr post dose): 1290 ng/ml or ng/g
- Compound 1 Concentration, Brain ([4]; rat, 2 hr post dose): 129 ng/ml or ng/g
- Compound 1 Concentration, CSF ([4]; rat, 2 hr post dose): 23.3 ng/ml or ng/g
- Compound 1 Concentration, Heart ([4]; rat, 2 hr post dose): 3280 ng/ml or ng/g
- Compound 1 Concentration, Kidney ([4]; rat, 2 hr post dose): 4980 ng/ml or ng/g
- Compound 1 Concentration, Liver ([4]; rat, 2 hr post dose): 13700 ng/ml or ng/g
- Compound 1 Concentration, Lung ([4]; rat, 2 hr post dose): 2710 ng/ml or ng/g
- Compound 1 Concentration, Plasma ([4]; rat, 2 hr post dose): 1960 ng/ml or ng/g
- Compound 1 Concentration, Spleen ([4]; rat, 2 hr post dose): 1790 ng/ml or ng/g
- Compound 1 Concentration, Brain ([4]; rat, 7 hr post dose): 111 ng/ml or ng/g
- Compound 1 Concentration, CSF ([4]; rat, 7 hr post dose): 27 ng/ml or ng/g
- Compound 1 Concentration, Heart ([4]; rat, 7 hr post dose): 3100 ng/ml or ng/g
- Compound 1 Concentration, Kidney ([4]; rat, 7 hr post dose): 4770 ng/ml or ng/g
- Compound 1 Concentration, Liver ([4]; rat, 7 hr post dose): 11400 ng/ml or ng/g
- Compound 1 Concentration, Lung ([4]; rat, 7 hr post dose): 2700 ng/ml or ng/g
- Compound 1 Concentration, Plasma ([4]; rat, 7 hr post dose): 2210 ng/ml or ng/g
- Compound 1 Concentration, Spleen ([4]; rat, 7 hr post dose): 491 ng/ml or ng/g
- Compound 1 Concentration, Brain ([4]; rat, 24 hr post dose): 30 ng/ml or ng/g
- Compound 1 Concentration, CSF ([4]; rat, 24 hr post dose): 5 ng/ml or ng/g
- Compound 1 Concentration, Heart ([4]; rat, 24 hr post dose): 771 ng/ml or ng/g
- Compound 1 Concentration, Kidney ([4]; rat, 24 hr post dose): 1600 ng/ml or ng/g
- Compound 1 Concentration, Liver ([4]; rat, 24 hr post dose): 3010 ng/ml or ng/g
- Compound 1 Concentration, Lung ([4]; rat, 24 hr post dose): 617 ng/ml or ng/g
- Compound 1 Concentration, Plasma ([4]; rat, 24 hr post dose): 592 ng/ml or ng/g
- Compound 1 Concentration, Spleen ([4]; rat, 24 hr post dose): 125 ng/ml or ng/g
- Compound 1 Concentration, Brain ([4]; rat, 48 hr post dose): 9.35 ng/ml or ng/g
- Compound 1 Concentration, CSF ([4]; rat, 48 hr post dose): BQL
- Compound 1 Concentration, Heart ([4]; rat, 48 hr post dose): 196 ng/ml or ng/g
- Compound 1 Concentration, Kidney ([4]; rat, 48 hr post dose): 673 ng/ml or ng/g
- Compound 1 Concentration, Liver ([4]; rat, 48 hr post dose): 750 ng/ml or ng/g
- Compound 1 Concentration, Lung ([4]; rat, 48 hr post dose): 185 ng/ml or ng/g
- Compound 1 Concentration, Plasma ([4]; rat, 48 hr post dose): 141 ng/ml or ng/g
- Compound 1 Concentration, Spleen ([4]; rat, 48 hr post dose): BQL
- Tissue to Plasma Ratio, CSF ([4]; rat, 48 hr post dose): BQL
- Kp ([4]; rat, brain and CSF, relative to plasma, male rats, read-out: brain and CSF exposure, % of the plasma exposure): < 0.001
- Cmax ([4]; rat, cerebrospinal fluid (CSF), male rats): 27 ng/mL
